From patent US12576039B2, “Lipid-polymer compositions and methods of use” (Max Biology Co. Ltd., priority 2020, dated 2026)

Assays:
[1] = Saturated solubility of CBD (HPLC); type: physicochemical; conditions: formulations containing PLURONIC F127 from 7% to 11%, excess CBD stirred overnight at room temperature, filtered 0.45 μm
Description: To determine the saturated solubility of CBD in the presence of PLURONIC® F127, PLURONIC® formulations were made as above. To each formulation excess CBD was added and left stirring overnight on a magnetic stirrer at room temperature (FIG. 17). To see how addition of lipids affects saturated solubility, lipids were added to 5% PLURONIC® F127 containing excess CBD using the ethanol injection method. For this, a 19G needle was immersed into the formulation being stirred, and 8.11% (volume of sample end volume) of the lipid stock formulation was injected at the rate of 750 μl/7 sec. Each formulation at this point was then left stirring overnight as above. On the following day, the formulations were filtered using 0.45 μm syringe filters and the amount of CBD dissolved was quantified using high pressure liquid chromatography.
CBD content was determined by diluting the samples in acetonitrile (ACN) (as needed) and then analysing them using HPLC. Calibration curve and sample quantification was carried out using an Agilent Infinity 1260 system. An Eclipse Plus C18, 4.6×150 mm, 3.5 μm column was purchased from […]. The mobile phase used was ACN:Water (82:18 v/v). HPLC analysis was carried at room temperature at a flow rate of 1 ml/min and an injection volume of 20 μl. […] Particle size and polydispersity was determined using a Brookhaven dynamic light scattering system.

[2] = very low solubility in water, high lipophilicity; cited from earlier work

C=C(C)[C@@H]1CCC(C)=C[C@H]1c1c(O)cc(CCCCC)cc1O [CBD, cannabidiol]
peak CBD concentration (saturated solubility) [1]: approximately 2 % w/v | Biopharmaceutical Classification System (BCS) classification [2]: class 2
